From the Biogen ADME set (Fang et al. 2023)
≈ marks a conversion by molar mass, not a printed value.

Conditions: for aqueous solubility: pH 6.8

SMILES	MDR1-MDCK efflux ratio	intrinsic clearance, human liver microsomes [mL/min/kg]	intrinsic clearance, rat liver microsomes [mL/min/kg]	fraction unbound, human plasma	fraction unbound, rat plasma	aqueous solubility [µg/mL]
CCOc1ccnc(NCCCc2nc3cc(F)ccc3[nH]2)n1	3.15	237	3280	–	–	–
CC(O)(C#Cc1ccc2c(c1)N(c1nc(N)ncc1Cl)CC2)c1nccs1 (stereo not given)	5.75	72.5	327	0.00754	0.0188	–
CCN(Cc1cnn(C(C)C)c1)C(=O)NCCC(C)(C)OC	17.2	5.64	163	–	–	–
COc1ccccc1C(=O)Nc1ccc2cc[nH]c2c1	0.247	84.8	491	0.032	0.0373	4.9 (≈ 18.4 µM)
COCCN1CCOc2nc3c(C)cccc3cc2C1	0.564	14.7	882	–	–	–
Cc1ccc(/C(N)=N/OC(=O)c2ccc3c(c2)OCCO3)cc1	–	–	–	–	–	0.33 (≈ 1.06 µM)
Cc1cc(C)nc(SCC(=O)N2c3ccccc3C(C)(c3ccc(Cl)cc3)CC2(C)C)n1 (stereo not given)	–	1040	2110	–	–	–
Cc1cn2nc(-c3cc(=O)n4cc(N5CCNC6(CC6)C5)ccc4n3)cc(C)c2n1	12.7	17.5	–	0.0967	–	36 (≈ 89.7 µM)
COc1ccc(CC(=O)N2CCc3[nH]c4ccc(Cl)cc4c3C2)cc1OC	6.37	120	675	–	–	6.7 (≈ 17.4 µM)
CCNc1ccnc(-c2cccc(C(=O)NCCCc3cnn(C)c3)c2)n1	39.2	26.1	634	–	–	–
Cc1ccc(Nc2ccnc(Nc3ccc(C)cc3)n2)cc1	0.2	85.2	477	–	–	–
O=C(CSCCCn1c(=O)[nH]c2ccccc21)N1CCCCC1	–	68.3	760	–	–	59.6 (≈ 179 µM)
Cc1c(C)n(Cc2ccccc2)c2ncnc(N)c12	0.607	16	516	–	–	43.1 (≈ 171 µM)
CC(=O)N1CCCN(Cc2ccc(C(=O)N3CCCC3)cc2)c2ccccc21	–	227	327	–	–	–
CC(=O)Nc1ccc(C(=O)N2CCc3ncncc3C2)cc1	17.2	≤ 4.74	≤ 10.7	–	–	33.7 (≈ 114 µM)
Clc1cccc(-c2nnc(Cn3cnc4ccccc43)o2)c1	0.866	7.23	122	–	–	27.4 (≈ 88.2 µM)
CC1(C)CCN(C(=O)NCCOc2cccnc2)C1	3.33	≤ 4.74	47.9	–	–	39.8 (≈ 151 µM)
O=C(O)CCC(=O)Nc1ccccc1-c1nc2ccccc2[nH]c1=O	0.345	≤ 4.74	≤ 10.7	–	–	60.7 (≈ 180 µM)
O=C(CC1CCCC1)NCc1nnc2n1CCC2	51.7	≤ 4.74	≤ 10.7	–	–	31.5 (≈ 127 µM)

SMILES	MDR1-MDCK efflux ratio	intrinsic clearance, human liver microsomes [mL/min/kg]	intrinsic clearance, rat liver microsomes [mL/min/kg]	fraction unbound, human plasma	fraction unbound, rat plasma	aqueous solubility [µg/mL]
COc1ccc2c(c1)CN(C(=O)c1cc(C3CC3)[nH]n1)CC2	1.06	63.1	2860	–	–	13.6 (≈ 45.9 µM)
Cc1cc(C)n(-c2cc(Nc3ccccc3C)ncn2)n1	0.489	59.7	286	–	–	1.74 (≈ 6.23 µM)
Nc1ccccc1-c1nc(C2CC2)no1	–	322	754	–	–	–
Cn1c(SCOCc2ccccc2)nnc1C1CC1	0.57	27.1	271	–	–	–
CCN1CCC(Nc2nc(C)cc(C)c2C#N)CC1	1.24	6.73	2490	–	–	43.4 (≈ 168 µM)
O=C(COc1ncnc2ccccc12)NC12CC3CC(CC(C3)C1)C2	1.2	62.2	468	–	–	60.3 (≈ 179 µM)
CCN(CC#N)C(=O)c1nn(-c2ccc(F)cc2)c2c1CCCC2	0.712	50.2	397	–	–	40.5 (≈ 124 µM)
CNC(=O)C1(Cc2ccc(-c3cccnc3)cc2)CCN(Cc2ccccc2Cl)C1 (stereo not given)	0.961	446	559	0.0244	0.0188	–
CC(C)C[C@H](C(=O)N[C@H](C(=O)OC1CCCC1)c1ccccc1)[C@@H](O)C(=O)NO	–	55.3	598	–	–	–
CC(=O)N1c2ccc(S(=O)(=O)Nc3cccc(-c4cnco4)c3)cc2CC1C (stereo not given)	11.5	67.6	274	–	–	–
O=C(Nc1nccs1)[C@@H]1C[C@@H]2CCCC[C@@H]2N1C(=O)c1ccccc1	6.31	36.7	498	–	–	–
Cc1cccc(NCC2CCN(C(=O)c3ccccc3)CC2)n1	1.18	13.2	1110	–	–	28.5 (≈ 92.1 µM)
COc1nn(C)cc1C(=O)Nc1cccc2cnccc12	–	99.7	180	0.32	0.389	40.5 (≈ 143 µM)
CN(C)c1ccnc2sc3c(=O)n(N4CCCCCC4)cnc3c12	3.06	8.59	90.9	–	–	–
O=C(O)c1ccc(Nc2ncc3c(n2)-c2ccc(Cl)cc2C(c2c(F)cccc2F)=NC3)cc1	3.32	≤ 4.74	102	–	–	47.1 (≈ 98.8 µM)
CCCOc1c2c(nc3cc(C4CCOCC4)nn13)CCC2	22.3	≤ 4.74	16.1	–	–	–
CCCCn1nc(-c2ccc(C)o2)nc1CNC	1.32	14.3	239	–	–	29.3 (≈ 118 µM)
N=C(N)N/N=C/c1c(Cl)cccc1Cl	0.543	≤ 4.74	77	–	–	50.3 (≈ 218 µM)
COc1ccc(Cl)cc1N(CC(=O)Nc1ccccc1C(=O)NCc1ccccc1)S(C)(=O)=O	–	594	1370	–	–	–

SMILES	MDR1-MDCK efflux ratio	intrinsic clearance, human liver microsomes [mL/min/kg]	intrinsic clearance, rat liver microsomes [mL/min/kg]	fraction unbound, human plasma	fraction unbound, rat plasma	aqueous solubility [µg/mL]
Cn1nc(C2CC2)c2[nH]c(-c3cccc(CN4CCOCC4)c3)nc21	52	18.8	244	–	–	49.4 (≈ 147 µM)
Cc1ccc(C(=O)Nc2ccccc2C(C)(C)C)cn1	0.696	≤ 4.74	30.4	–	–	32 (≈ 119 µM)
CN(Cc1ccc(-c2ccc(Br)cc2)o1)C(=O)c1cnn(C)c1	–	10.5	134	–	–	5.53 (≈ 14.8 µM)
CC(=O)N1CCC2(C=Cc3cc(C)c(C)cc3O2)CC1	0.579	12.4	1020	–	–	–
CNc1nc(Nc2cnn([C@H]3CCN(C4COC4)C[C@@H]3F)c2Cl)ncc1C(F)(F)F	1.31	10.6	60.9	–	–	–
CC(C)C(=O)N1CCn2nc(CNC3CCc4ccccc4CC3)cc2C1	27.1	≤ 4.74	205	–	–	–
CNC(=O)c1sc2ncccc2c1[C@H]1CC[C@H](CNC(=O)CCc2ccccc2)CC1	33.7	206	1460	–	–	61.7 (≈ 142 µM)
Cc1cc(Nc2ncccn2)cc(C2CCCN(CC(=O)Nc3ccc(F)cc3)C2)n1 (stereo not given)	8.32	64.4	456	–	–	–
O=C(NCc1ccc(O)cc1)Nc1ccncc1F	–	≤ 4.74	≤ 10.7	–	–	37.8 (≈ 145 µM)
CC(C)(C)C(=O)Nc1nnc(Cc2ccccc2)s1	1.19	≤ 4.74	658	–	–	35.2 (≈ 128 µM)
COC1(c2nc(Cc3ccccc3)no2)CCN(Cc2ncccc2Cl)CC1	0.76	123	1780	–	–	–
c1csc(Cc2nc(-c3cnccn3)no2)c1	–	10.8	80.8	–	–	–
CCn1cnnc1C1CCCN(c2ncnc3sc(-c4ccccc4)cc23)C1 (stereo not given)	–	–	–	–	–	34.8 (≈ 89 µM)
O=C(Nc1nc(-c2cccnc2)cs1)C1CCCCC1	0.497	–	–	–	–	0.21 (≈ 0.731 µM)
COc1ccccc1/C=C/CN1CCCC2(C1)OCCO2	0.549	17.7	2180	–	–	–
Cc1nc(CN2C(=O)CN(C3CCCC3)C2=O)nc2ccccc12	1.54	≤ 4.74	823	–	–	43 (≈ 132 µM)
Cc1noc2nc(-c3ccccc3F)cc(C(=O)O)c12	–	–	–	–	–	39.1 (≈ 144 µM)
C=C(C)COc1cccc(C(=O)NCc2nncn2C2CCCCC2)c1	16.9	158	2090	–	–	26.9 (≈ 75.9 µM)
Cc1nc(C)c(CNc2ncnn2C)s1	4	≤ 4.74	22.5	–	–	–
